Key:
[1] = Free energy of hydration predicted with the QM-parameterized force field model (ARROW FF), classical MD and PIMD simulation in a water box; settings: for water Arrow MD Error / water Arrow PIMD8 Error: Table 3; for water Arrow MD Error: absolute error of MD hydration free energy vs experiment; for water Arrow PIMD8 Error: absolute error of PIMD8 hydration free energy vs experiment; for Arrow PIMD8 Error: absolute error vs Exp (hydration)
Text: For example, the example QM-parameterized force-field molecular simulation process 400 can use Bennett Acceptance Ratio (BAR) to compute the free energy of hydration/solvation of the molecule in water or any other solvent. In some implementations, the analysis of the molecular dynamics simulations includes analysis, predication, and visualization of ensemble properties of atoms/molecules from atomic and molecular trajectories using the optimized parameters of the QM-parameterized force field model (i.e., the quantum mechanics rule-based reasoning technique) and the QM-parameterized force field model.
In some simulations of the QM-parameterized force field molecular simulation process, the molecules were placed in a water or cyclohexane box of size 32×32×32 Å3. Particle-Mesh Ewald (PME) algorithm was used to compute the electrostatic interactions. A 32×32×32 grid mesh and 5th power spline interpolation order can be used to compute the inverse PME sum. 9 Å cutoffs were used to compute the direct PME sum as well as the exchange and dispersion interactions. Bulk corrections were applied to account for distance cut-off of dispersion interactions. Solvation free energies were computed by decoupling the interactions between the solute and the solvent molecules. Electrostatic, exchange-repulsion and dispersion interactions were switched off simultaneously using a lambda-dependent scaling (a scaling factor power=2 was used) and a soft-coring algorithm (maximal soft-coring radius=1.5 Å, soft-coring radius scaling factor power=1). 15 lambda points unequally spaced (X=0, 0.05, 0.1, 0.2, 0.3, 0.4, 0.5, 0.6, 0.7, 0.75, 0.8, 0.85, 0.9, 0.95, 1.0) were used to decouple the solute-solvent intermolecular interactions.
In some simulations of the QM-parameterized force field molecular simulation process, energy minimization (10,000 steps) using the steepest descent algorithm was initially performed on all the simulation systems. This was followed by a 50 ps equilibration and 1 ns production runs in the isothermal-isobaric ensemble (NPT). […] Pressure was maintained at 1 atm using a MTTK barostat (relaxation time=5 ps). A Multiple Time Step (MTS) algorithm was used to integrate the equations of motion both for the classical and path-integral runs. […] The calculations were performed using the QM-parameterized force field model.
Using the QM-parameterized force field model, the QM-parameterized force field device can compute or predict the solvation free energies using both the Bennett acceptance ratio (BAR) and thermodynamic integration (TI) method with <dH/dλ> values interpolated by cubic splines. […] FIG. 7A illustrates a <dH/dλ> dependence for desolvation of Anthracene in water. FIG. 7B illustrates accumulated statistical errors for TI calculations of AG desolvation of Anthracene in water.

[2] = Free energy of hydration by COSMO implicit solvent model (MolPro ver. 2012); settings: absolute error vs Exp (hydration)
Method: (§1) Due to unavailability of free energy data for the original COSMO model, the free energies of solvation for the molecule dataset are calculated using MolPro ver. […] The comparisons to other implicit solvent models such as SMD, PCM and COSMO-RS are limited to the overlap of the molecules computed using QM-parameterized force field model. The free energies of hydration as predicted by these implicit solvent models (SMD, PCM) were received.

[3] = Free energy of hydration by Solvation Model Dielectric (SMD) implicit solvent model; settings: absolute error vs Exp (hydration)
Method: as §1

[4] = Free energy of hydration by Polarizable Continuum Model (PCM); settings: absolute error vs Exp (hydration)
Method: as §1

[5] = Free energy of hydration by COSMO-RS
Method: as §1

[6] = Table 3; free energy of hydration, experimental; cited from earlier work
[7] = implicit solvent model, values received; cited from earlier work
[8] = implicit solvent model, values received; cited from earlier work; remark: listed apart in the source
[9] = CHEX/H2O partition coefficient (log D) predicted with the QM-parameterized force field model (ARROW FF)
Text: In some simulations, the example QM-parameterized force-field molecular simulation process includes using the functional form of the bonded interactions, with force constants and equilibrium values fitted to QM energies at the MP2/aug-cc-pVTZ level of theory. In some simulations, solvents of water and cyclohexane are selected. Cyclohexane (CHEX) is nonpolar and equilibrates relatively quickly. Reliable experimental data for both CHEX solvation free energies, as well as for the CHEX/H2O partition coefficients are used in these simulations.
In some example simulations, solutes containing neutral chemical functional groups, for example carboxylic acids, alkanes, alkenes, aromatics, aldehydes, ketones, alcohols, amides, esters, thiols, sulfides, disulfides and heterocycles, are used. The simulations were performed independently by four groups using their own respective computational resources and architectures, and then averaged. FIGS. 9A-9C show solvation and hydration free energies predictions of various solutes, using the QM-parameterized force field model, in some embodiments.
The straight line is a line of agreement between experimental and simulated/predicted values, and the gray bar is the range or chemical accuracy. […] The molecules here are a subset of those in a) because only those with experimental values for CHEX solvation can be included.

| Compound | water Arrow MD Error [1] [kcal/mol] | water Arrow PIMD8 Error [1] [kcal/mol] | Arrow PIMD8 Error [1] [kcal/mol] | COSMO/Molpro Error [2] [kcal/mol] | SMD Error [3] [kcal/mol] | PCM Error [4] [kcal/mol] | COSMO-RS error [5] [kcal/mol] | estimated statistical error of computed free energy of solvation ([1]; 1 ns trajectory, TI, FIG. 7B, in water) | water Exp (hydration) [6] [kcal/mol] | SMD free energy of hydration [7] [kcal/mol] | PCM free energy of hydration [8] [kcal/mol] | log D Arrow MD Error [9] | log D Arrow PIMD Error [9] | logD Arrow MD Error [9] | logD Arrow PIMD Error [9] |
| --- | --- | --- | --- | --- | --- | --- | --- | --- | --- | --- | --- | --- | --- | --- | --- |
| CC(C)(C)O [2-Methyl-2-Propanol] | 0.85 | 0.35 | 0.35 | 1.31 | 0.71 | 1.51 | 0.10 | – | – | – | – | – | – | – | – |
| c1ccc2cc3ccccc3cc2c1 [Anthracene] | 0.32 | 0.07 | 0.07 | 1.77 | 1.75 | 1.05 | 0.17 | about 0.2 kcal/mol | -3.95 | -2.20 | -2.90 | – | – | – | – |
| c1ccc(-c2ccccc2)cc1 [Biphenyl] | 1.17 | 0.13 | 0.13 | 2.64 | – | – | 0.31 | – | -2.66 | – | – | – | – | – | – |
| C=CC=C [Buta-13-diene] | 0.31 | 0.35 | 0.35 | 3.28 | 0.29 | 1.91 | 0.47 | – | 0.61 | 0.90 | -1.30 | – | – | – | – |
| C1CCCCCC1 [Cycloheptane] | 0.67 | 0.12 | 0.12 | 1.32 | – | – | – | – | 0.79 | – | – | – | – | – | – |
| OC1CCCCC1 [Cyclohexanol] | 1.09 | 0.34 | 0.34 | 1.03 | – | – | 0.33 | – | -5.47 | – | – | – | – | – | – |
| C1CCCC1 [Cyclopentane] | 0.71 | 0.12 | – | – | – | – | – | – | 1.20 | – | – | – | – | – | – |
| CCSCC [DiEthylSulfide] | 0.89 | 0.12 | 0.12 | 3.37 | 1.23 | 0.57 | – | – | -1.43 | -0.20 | -2.00 | – | – | – | – |
| CC(=O)N(C)C [DiMethylAcetamide] | – | – | – | 2.31 | – | – | 0.37 | – | – | – | – | – | – | – | – |
| CCOCC [DiethylEther] | 0.95 | 0.10 | 0.10 | 2.00 | 0.55 | 0.15 | – | – | -1.75 | -1.20 | -1.90 | – | – | – | – |
| CCS [EthaneThiol] | 0.94 | 0.43 | 0.43 | 2.70 | 0.24 | 0.86 | – | – | -1.24 | -1.00 | -2.10 | – | – | – | – |
| C=C [Ethene] | 0.29 | 0.19 | 0.19 | 2.95 | 0.12 | 2.08 | 0.55 | – | 1.28 | 1.40 | -0.80 | – | – | – | – |
| CCCCCC [Hexane] | 0.94 | 0.06 | 0.06 | 3.37 | 0.11 | 2.71 | 0.06 | – | 2.51 | 2.40 | -0.20 | – | – | – | – |
| CCCOC [MethylPropylEther] | 0.66 | 0.00 | 0.00 | 3.19 | 1.16 | 0.14 | – | – | -1.66 | -0.50 | -1.80 | – | – | – | – |
| CC(C)(C)C [NeoPentane] | 1.05 | 0.12 | 0.12 | 3.25 | 0.30 | 2.80 | – | – | 2.50 | 2.20 | -0.30 | – | – | – | – |
| C=CC [Propene] | 0.48 | 0.05 | 0.05 | 3.00 | 0.12 | 2.12 | 0.32 | – | 1.32 | 1.20 | -0.80 | – | – | – | – |
| CN [methylamine] | 0.49 | 0.16 | 0.16 | 1.24 | – | – | 0.26 | – | -4.55 | – | – | – | – | – | – |
| Cc1ccc(O)cc1 [p-cresol] | – | – | – | – | – | – | – | – | – | – | – | 0.73 | 0.11 | 0.73 | 0.11 |
| c1ccc2c(c1)ccc1ccccc12 [phenanthrene] | 0.35 | 0.09 | 0.09 | 1.97 | – | – | – | – | -3.88 | – | – | – | – | – | – |
| c1cc2ccc3cccc4ccc(c1)c2c34 [pyrene] | 0.45 | 0.01 | 0.01 | 1.32 | – | – | – | – | -4.52 | – | – | – | – | – | – |
| c1ccc2cc3cc4ccccc4cc3cc2c1 [tetracene] | 0.39 | 0.44 | 0.44 | 1.43 | – | – | – | – | -5.5 | – | – | – | – | – | – |
